Results taken from patent US20110111972A1, “SELECTIVITY PROFILING OF PI3K INTERACTING MOLECULES AGAINST MULTIPLE TARGETS” (CELLZOME AG, priority 2008, published 2011).

Columns and labels:
Type in all cases: binding
PI3K delta = biological target: T1, PI3K delta (Homo sapiens, UniProt O00329); assay: Drug pulldown with immobilized phenylthiazole ligand 1, Western blot detection; conditions: MOLT-4 cell lysate
T1 construct: endogenous in cells; host or cells: MOLT-4 (ATCC CRL-1582) cell lysate
Experimental: (§1) As biological material a cell lysate prepared from MOLT-4 cells was used. The drug pulldown experiment was performed as described in Example 2 with lysate samples containing 50 mg of protein. Captured proteins were eluted with DMSO containing buffer (lane 1), 100 μM of free phenylthiazole ligand 1 or SDS sample buffer (lane 3). The eluted samples were separated on SDS-polyacrylamide gels and transferred to membranes. The blots were first incubated with specific antibodies directed against PI3K gamma (FIG. 2A) and PI3K delta (FIG. 2B). Secondary detection antibodies labeled with fluorescent dyes for detection were used with the Odyssey infrared imaging system. Lane 1: DMSO elution control; lane 2: elution with 100 μM free phenylthiazole ligand 1; lane 3: SDS elution. […]
(§2) For Western blot analysis bound proteins were eluted from the affinity matrix and subsequently separated by SDS-Polyacrylamide gel elecrophoresis. PI3K gamma and PI3K delta were detected with specific antibodies (FIG. 2).
(§3) MOLT-4 cells were homogenized in a Potter S homogenizer in lysis buffer: 50 mM Tris-HCl, 0.8% NP40, 5% glycerol, 150 mM NaCl, 1.5 mM MgCl2, 25 mM NaF, 1 mM sodium vanadate, 1 mM DTT, pH 7.5. […] The supernatant was transferred again to a fresh 50 ml falcon tube, the protein concentration was determined by a Bradford assay (BioRad) and samples containing 50 mg of protein per aliquot were prepared. […]

PI3K gamma = biological target: T2, PI3K gamma (Homo sapiens, UniProt P48736); assay: as above; conditions: MOLT-4 cell lysate
T2 construct: PI3K gamma protein was captured by immobilized phenylthiazole ligand 1 from MOLT-4 cell lysate; endogenous in cells; host or cells: MOLT-4 (ATCC CRL-1582) cell lysate
Experimental: as §1, §2, §3

ATM = biological target: T3, ATM (Homo sapiens, UniProt Q13315); assay: Drug pulldown with immobilized phenylthiazole ligand 1, mass spectrometry analysis; conditions: 1:1 mixture of Jurkat and Ramos cell lysate
T3 construct: with a 1:1 mixture of Jurkat and Ramos cell lysate sample containing 50 mg of protein; endogenous in cells; host or cells: 1:1 mixture of Jurkat and Ramos cell lysates
From the text: (§4) A protein gel after staining with Coomassie blue is shown. The indicated gel areas were cut out as gel slices and proteins were subjected to analysis by mass spectrometry. […] Proteins bound to immobilized phenylthiazole ligand 1 were eluted with SDS sample buffer and separated by SDS-polyacrylamide gel electrophoresis (SDS-PAGE). The following proteins were identified in this experiment: DNA-PK, ATM, and mTOR. […] Beads were collected, transfered to Mobicol-columns (MoBiTech 10055) and washed with 10 ml lysis buffer containing 0.5% NP40 detergent, followed by 5 ml lysis buffer with 0.25% detergent. […] Proteins were then separated by SDS-Polyacrylamide electrophoresis (SDS-PAGE). Gel-separated proteins were reduced, alkylated and digested in gel essentially following the procedure described by Shevchenko et al., 1996, Anal. Chem. 68:850-858. Briefly, gel-separated proteins were excised from the gel using a clean scalpel, reduced using 10 mM DTT (in 5 mM ammonium bicarbonate, 54° C., 45 min) and subsequently alkylated with 55 mM iodoacetamid (in 5 mM ammonium bicarbonate) at room temperature in the dark (30 minutes). Reduced and alkylated proteins were digested in gel with porcine trypsin (Promega) at a protease concentration of 12.5 ng/μl in 5 mM ammonium bicarbonate. Digestion was allowed to proceed for 4 hours at 37° C. and the reaction was subsequently stopped using 5 μl 5% formic acid. Gel plugs were extracted twice with 20 μl 1% TFA and pooled with acidified digest supernatants. […] Peptide samples were injected into a nano LC system (CapLC, Waters or Ultimate, Dionex) which was directly coupled either to a quadrupole TOF (QTOF2, QTOF Ultima, QTOF Micro, Micromass) or ion trap (LCQ Deca XP) mass spectrometer. […] Proteins were identified by correlating the measured peptide mass and fragmentation data with the same data computed from the entries in the database using the software tool Mascot (Matrix Science; Perkins et al., 1999. Probability-based protein identification by searching sequence databases using mass spectrometry data. Electrophoresis 20, 3551-3567). […]

DNA-PK = biological target: T4, DNA-PK (Homo sapiens, UniProt P78527); assay: as above; conditions: 1:1 mixture of Jurkat and Ramos cell lysate
T4 construct: with a 1:1 mixture of Jurkat and Ramos cell lysate sample containing 50 mg of protein; endogenous in cells; host or cells: 1:1 mixture of Jurkat and Ramos cell lysates
From the text: as §4

mTOR = biological target: T5, mTOR (Homo sapiens, UniProt P42345); assay: as above; conditions: 1:1 mixture of Jurkat and Ramos cell lysate
T5 construct: with a 1:1 mixture of Jurkat and Ramos cell lysate sample containing 50 mg of protein; endogenous in cells; host or cells: 1:1 mixture of Jurkat and Ramos cell lysates
From the text: as §4

T1 sequence (O00329 whole entry): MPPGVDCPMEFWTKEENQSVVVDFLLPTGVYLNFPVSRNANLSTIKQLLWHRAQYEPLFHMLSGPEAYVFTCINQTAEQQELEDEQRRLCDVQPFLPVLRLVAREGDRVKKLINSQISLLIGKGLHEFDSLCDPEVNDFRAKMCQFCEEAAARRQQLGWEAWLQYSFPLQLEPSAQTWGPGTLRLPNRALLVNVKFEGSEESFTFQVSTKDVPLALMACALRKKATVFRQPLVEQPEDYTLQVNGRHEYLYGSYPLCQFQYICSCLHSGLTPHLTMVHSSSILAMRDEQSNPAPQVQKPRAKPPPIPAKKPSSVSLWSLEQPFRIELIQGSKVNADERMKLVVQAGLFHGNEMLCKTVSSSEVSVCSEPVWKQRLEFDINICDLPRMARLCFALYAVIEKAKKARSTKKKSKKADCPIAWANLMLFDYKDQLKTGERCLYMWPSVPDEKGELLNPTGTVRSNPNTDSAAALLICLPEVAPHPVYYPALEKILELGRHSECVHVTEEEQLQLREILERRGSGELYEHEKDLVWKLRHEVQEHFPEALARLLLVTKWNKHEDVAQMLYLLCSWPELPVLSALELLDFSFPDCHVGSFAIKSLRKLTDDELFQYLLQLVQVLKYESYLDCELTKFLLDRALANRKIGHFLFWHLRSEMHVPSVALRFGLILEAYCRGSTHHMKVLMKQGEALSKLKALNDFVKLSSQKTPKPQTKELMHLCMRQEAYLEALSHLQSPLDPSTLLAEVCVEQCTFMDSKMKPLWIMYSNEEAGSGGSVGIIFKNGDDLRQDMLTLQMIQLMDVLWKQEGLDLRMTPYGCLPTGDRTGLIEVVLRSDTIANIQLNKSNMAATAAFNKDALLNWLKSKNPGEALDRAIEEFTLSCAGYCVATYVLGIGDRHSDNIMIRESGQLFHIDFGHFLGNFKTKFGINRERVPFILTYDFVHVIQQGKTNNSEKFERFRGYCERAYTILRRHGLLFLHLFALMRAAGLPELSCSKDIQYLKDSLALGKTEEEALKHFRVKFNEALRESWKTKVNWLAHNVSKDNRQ
T1 sequence (P27986 whole entry partner): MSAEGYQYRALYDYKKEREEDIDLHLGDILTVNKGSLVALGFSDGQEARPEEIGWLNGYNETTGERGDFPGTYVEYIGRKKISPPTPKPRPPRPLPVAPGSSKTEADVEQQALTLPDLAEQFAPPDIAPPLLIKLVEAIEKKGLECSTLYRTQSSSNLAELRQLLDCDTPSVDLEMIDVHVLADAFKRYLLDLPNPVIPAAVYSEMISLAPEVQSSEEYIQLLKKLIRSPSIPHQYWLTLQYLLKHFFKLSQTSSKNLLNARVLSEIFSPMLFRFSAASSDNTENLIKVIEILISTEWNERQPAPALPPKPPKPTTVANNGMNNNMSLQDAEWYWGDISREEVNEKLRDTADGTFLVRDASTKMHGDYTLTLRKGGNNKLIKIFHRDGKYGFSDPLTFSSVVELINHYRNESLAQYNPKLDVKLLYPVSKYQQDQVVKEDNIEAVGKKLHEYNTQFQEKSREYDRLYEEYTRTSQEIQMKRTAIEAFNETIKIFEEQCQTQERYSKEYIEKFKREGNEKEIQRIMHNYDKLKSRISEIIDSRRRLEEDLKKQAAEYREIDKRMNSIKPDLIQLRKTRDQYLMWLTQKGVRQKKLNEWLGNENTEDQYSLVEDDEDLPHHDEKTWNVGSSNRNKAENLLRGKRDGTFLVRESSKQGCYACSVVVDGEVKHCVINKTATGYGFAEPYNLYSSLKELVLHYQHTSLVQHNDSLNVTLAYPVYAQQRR
T3 sequence (Q13315 whole entry): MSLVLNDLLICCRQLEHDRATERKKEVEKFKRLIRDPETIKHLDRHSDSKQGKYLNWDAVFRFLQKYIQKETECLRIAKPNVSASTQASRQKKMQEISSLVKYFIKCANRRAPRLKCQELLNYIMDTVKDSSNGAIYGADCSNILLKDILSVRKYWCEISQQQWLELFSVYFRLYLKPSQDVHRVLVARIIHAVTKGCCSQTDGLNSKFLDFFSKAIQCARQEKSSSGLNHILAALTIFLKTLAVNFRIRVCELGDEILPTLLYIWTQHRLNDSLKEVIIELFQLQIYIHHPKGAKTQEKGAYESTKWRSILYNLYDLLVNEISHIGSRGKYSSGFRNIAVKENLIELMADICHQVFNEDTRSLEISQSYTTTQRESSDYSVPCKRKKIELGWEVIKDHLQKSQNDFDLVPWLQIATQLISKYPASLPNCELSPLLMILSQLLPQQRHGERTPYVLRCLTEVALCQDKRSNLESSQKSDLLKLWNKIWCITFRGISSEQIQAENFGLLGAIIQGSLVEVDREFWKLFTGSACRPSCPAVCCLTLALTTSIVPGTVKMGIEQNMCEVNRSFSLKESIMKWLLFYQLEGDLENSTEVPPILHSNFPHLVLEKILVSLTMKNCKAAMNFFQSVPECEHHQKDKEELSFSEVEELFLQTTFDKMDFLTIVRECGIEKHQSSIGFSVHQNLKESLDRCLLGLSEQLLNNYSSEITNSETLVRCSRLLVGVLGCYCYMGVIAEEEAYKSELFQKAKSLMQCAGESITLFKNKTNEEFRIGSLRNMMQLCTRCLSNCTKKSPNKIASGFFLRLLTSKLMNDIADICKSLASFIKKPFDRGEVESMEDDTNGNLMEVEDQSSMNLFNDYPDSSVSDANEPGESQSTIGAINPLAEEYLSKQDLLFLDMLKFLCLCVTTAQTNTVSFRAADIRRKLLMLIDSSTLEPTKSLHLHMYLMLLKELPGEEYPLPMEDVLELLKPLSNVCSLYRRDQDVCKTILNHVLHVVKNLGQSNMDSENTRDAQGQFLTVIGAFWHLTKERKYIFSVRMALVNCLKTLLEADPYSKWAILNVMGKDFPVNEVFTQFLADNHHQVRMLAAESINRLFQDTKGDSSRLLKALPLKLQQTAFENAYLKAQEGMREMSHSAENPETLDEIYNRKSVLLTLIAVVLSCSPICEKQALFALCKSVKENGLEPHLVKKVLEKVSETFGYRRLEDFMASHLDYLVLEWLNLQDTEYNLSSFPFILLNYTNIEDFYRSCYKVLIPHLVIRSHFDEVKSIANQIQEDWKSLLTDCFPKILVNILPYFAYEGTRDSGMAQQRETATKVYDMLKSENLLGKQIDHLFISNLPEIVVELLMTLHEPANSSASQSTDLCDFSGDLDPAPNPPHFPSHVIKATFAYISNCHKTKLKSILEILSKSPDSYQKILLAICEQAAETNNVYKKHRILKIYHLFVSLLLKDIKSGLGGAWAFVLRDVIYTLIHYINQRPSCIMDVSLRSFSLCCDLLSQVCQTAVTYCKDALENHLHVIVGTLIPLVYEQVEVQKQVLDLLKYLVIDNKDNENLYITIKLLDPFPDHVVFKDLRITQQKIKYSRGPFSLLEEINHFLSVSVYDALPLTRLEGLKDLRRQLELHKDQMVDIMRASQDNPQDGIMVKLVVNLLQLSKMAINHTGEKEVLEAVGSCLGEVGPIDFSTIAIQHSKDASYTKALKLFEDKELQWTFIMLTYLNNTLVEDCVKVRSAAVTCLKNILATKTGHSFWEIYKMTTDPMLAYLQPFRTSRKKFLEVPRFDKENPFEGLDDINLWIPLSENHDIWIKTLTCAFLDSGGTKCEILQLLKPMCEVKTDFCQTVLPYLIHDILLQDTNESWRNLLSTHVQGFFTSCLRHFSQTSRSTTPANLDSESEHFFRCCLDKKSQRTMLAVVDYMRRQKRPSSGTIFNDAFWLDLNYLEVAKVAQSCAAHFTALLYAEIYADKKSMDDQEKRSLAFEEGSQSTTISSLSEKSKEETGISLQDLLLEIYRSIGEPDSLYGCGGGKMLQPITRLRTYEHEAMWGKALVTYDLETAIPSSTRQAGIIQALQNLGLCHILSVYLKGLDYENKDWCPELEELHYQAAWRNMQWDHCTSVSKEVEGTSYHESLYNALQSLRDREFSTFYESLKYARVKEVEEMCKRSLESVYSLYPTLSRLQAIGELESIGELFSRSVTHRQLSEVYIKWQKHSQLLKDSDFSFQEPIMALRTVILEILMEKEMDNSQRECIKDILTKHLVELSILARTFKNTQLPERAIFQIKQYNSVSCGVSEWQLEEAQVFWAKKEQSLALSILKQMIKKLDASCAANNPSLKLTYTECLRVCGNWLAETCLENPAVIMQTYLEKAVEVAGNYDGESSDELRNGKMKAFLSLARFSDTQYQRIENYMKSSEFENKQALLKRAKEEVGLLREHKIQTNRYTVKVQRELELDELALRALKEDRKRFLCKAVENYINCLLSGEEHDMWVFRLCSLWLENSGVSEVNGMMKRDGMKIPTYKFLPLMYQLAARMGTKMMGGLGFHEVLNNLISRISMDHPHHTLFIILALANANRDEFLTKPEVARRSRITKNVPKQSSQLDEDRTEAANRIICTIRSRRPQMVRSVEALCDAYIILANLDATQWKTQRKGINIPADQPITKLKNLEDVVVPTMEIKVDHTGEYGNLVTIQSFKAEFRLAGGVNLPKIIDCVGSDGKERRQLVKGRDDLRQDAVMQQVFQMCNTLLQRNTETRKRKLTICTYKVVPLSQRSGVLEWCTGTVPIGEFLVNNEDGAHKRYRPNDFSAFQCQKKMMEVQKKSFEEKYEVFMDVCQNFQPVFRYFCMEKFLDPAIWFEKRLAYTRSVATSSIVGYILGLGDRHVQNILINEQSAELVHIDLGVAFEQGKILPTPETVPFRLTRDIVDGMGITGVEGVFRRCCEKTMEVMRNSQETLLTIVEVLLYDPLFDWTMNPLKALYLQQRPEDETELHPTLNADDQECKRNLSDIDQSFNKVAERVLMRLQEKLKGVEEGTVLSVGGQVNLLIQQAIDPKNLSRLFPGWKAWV

- capture (pulldown) of PI3K delta from cell lysate (PI3K delta): captures (pulls down)
- capture (pulldown) of PI3K gamma from cell lysate (PI3K gamma): captures (pulls down)
- ATM bound to immobilized ligand, identified by mass spectrometry (ATM): identified
- DNA-PK bound to immobilized ligand, identified by mass spectrometry (DNA-PK): identified
- mTOR bound to immobilized ligand, identified by mass spectrometry (mTOR): identified
Structure (SMILES): Cc1nc(NC(=O)CCOCCOCCOCCOCCN)sc1-c1ccc(Cl)c(S(C)(=O)=O)c1.Cl [phenylthiazole ligand 1, 3-(2-{2-[2-(2-amino-ethoxy)-ethoxy]-ethoxy}-ethoxy)-N-[5-(4-chloro-3-methanesulfonyl-phenyl)-4-methyl-thiazol-2yl]-propionamide hydrochloride]
